These compounds were tested on Rattus norvegicus (assay: Accumulation of 5-Hydroxytryptophan in cortical brain region in rat after injecting drug compound 65 min and NSD 1015 at a dose of 100 mg/kg administered subcutaneously, 30 min before death, tested in vivo). Conditions: route subcutaneous.
Type: functional

Compared with `CCCN1CCC(c2cccc(OS(=O)(=O)C(F)(F)F)c2)C1` (centres undefined), `CCCN1CCC(c2cccc(O)c2)C1` (centres undefined) is lower in Control: 98% for the first, 79% for the second.

Going from `CCCN1CCC(C2CCCCC2)C1` (centres undefined) to `CCCN1CCC(c2ccccc2)C1` (centres undefined), the Control falls from 88% to 83%.

Compared with `CN1CCC(C2=CN=CCC2)C1` (centres undefined), `CCCN1CCC(c2cccc3ccccc23)C1` (centres undefined) is lower in Control: 79% for the first, 57% for the second.

Each compound was assayed on Rattus norvegicus (assay: Accumulation of Dihydroxyphenylalanine in striatal region in rat after injecting drug compound 65 min and NSD 1015 at a dose of 0.07 mg/kg administered subcutaneously, 30 min before death, tested in vivo). Conditions: route subcutaneous.
Type: functional

`O=C(CCCN1CCC(O)(c2ccc(Cl)cc2)CC1)c1ccc(F)cc1` [HALOPERIDOL] showed a Control of 310%.

The compounds below were run on Rattus norvegicus (assay: Accumulation of 5-Hydroxytryptophan in striatal region in rat after injecting drug compound 65 min and NSD 1015 at a dose of 100 mg/kg administered subcutaneously, 30 min before death, tested in vivo). Conditions: route subcutaneous.
Type: functional

Compared with `CCCN1CCC(c2cccc(OS(=O)(=O)C(F)(F)F)c2)C1` (centres undefined), `CCCN1CCC(c2cccc(O)c2)C1` (centres undefined) is lower in Control: 86% for the first, 68% for the second.

First: CCCN1CCC(C2CCCCC2)C1 (centres undefined)
Second: CCCN1CCC(c2ccccc2)C1 (centres undefined)
The Control of the first is higher: 103% for the first, 81% for the second.

First: CN1CCC(C2=CN=CCC2)C1 (centres undefined)
Second: CCCN1CCC(c2cccc3ccccc23)C1 (centres undefined)
The Control of the first is higher: 112% for the first, 54% for the second.

These compounds were tested against T1, D(2) dopamine receptor (Rattus norvegicus, UniProt P61169) (assay: Inhibitory concentration against [3H]U-86170 binding to Dopamine receptor D2 expressed in CHO-K1 cells). Conditions: not given.
T1 sequence (P61169 whole entry): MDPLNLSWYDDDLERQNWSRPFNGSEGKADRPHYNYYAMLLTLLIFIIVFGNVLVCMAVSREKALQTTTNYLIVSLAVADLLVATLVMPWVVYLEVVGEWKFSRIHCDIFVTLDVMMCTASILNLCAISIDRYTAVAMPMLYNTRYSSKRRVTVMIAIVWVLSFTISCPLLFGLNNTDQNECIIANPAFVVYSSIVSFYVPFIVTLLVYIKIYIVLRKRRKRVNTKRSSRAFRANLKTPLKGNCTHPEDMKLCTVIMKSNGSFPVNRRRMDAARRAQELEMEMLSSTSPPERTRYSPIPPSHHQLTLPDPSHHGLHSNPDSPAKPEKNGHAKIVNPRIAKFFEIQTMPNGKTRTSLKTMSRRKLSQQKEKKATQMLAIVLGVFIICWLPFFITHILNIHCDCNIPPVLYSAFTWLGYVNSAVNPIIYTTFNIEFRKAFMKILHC
Type: cell-based

`CCCN1CCC(C2CCCCC2)C1` (centres undefined) and `CN1CCC(C2=CN=CCC2)C1` (centres undefined) cannot be ordered by IC50: > 1000 nM for the first, > 1000 nM for the second.

Each compound was assayed on Rattus norvegicus (assay: Accumulation of Dihydroxyphenylalanine in striatal region in rat after injecting drug compound 65 min and NSD 1015 at a dose of 100 mg/kg administered subcutaneously, 30 min before death, tested in vivo). Conditions: route subcutaneous.
Type: functional

Going from `CCCN1CCC(c2cccc(OS(=O)(=O)C(F)(F)F)c2)C1` (centres undefined) to `CCCN1CCC(c2cccc(O)c2)C1` (centres undefined), the Control falls from 290% to 153%.

First: CCCN1CCC(C2CCCCC2)C1 (centres undefined)
Second: CCCN1CCC(c2ccccc2)C1 (centres undefined)
The Control of the first is higher: 95% for the first, 66% for the second.

Compared with `CN1CCC(C2=CN=CCC2)C1` (centres undefined), `CCCN1CCC(c2cccc3ccccc23)C1` (centres undefined) is higher in Control: 112% for the first, 177% for the second.

Each compound was assayed against T2, D(3) dopamine receptor (Rattus norvegicus, UniProt P19020) (assay: Binding affinity against [3H]spiperone binding to Dopamine receptor D3 expressed in CHO-K1 cells). Conditions: not given.
T2 sequence (P19020 whole entry): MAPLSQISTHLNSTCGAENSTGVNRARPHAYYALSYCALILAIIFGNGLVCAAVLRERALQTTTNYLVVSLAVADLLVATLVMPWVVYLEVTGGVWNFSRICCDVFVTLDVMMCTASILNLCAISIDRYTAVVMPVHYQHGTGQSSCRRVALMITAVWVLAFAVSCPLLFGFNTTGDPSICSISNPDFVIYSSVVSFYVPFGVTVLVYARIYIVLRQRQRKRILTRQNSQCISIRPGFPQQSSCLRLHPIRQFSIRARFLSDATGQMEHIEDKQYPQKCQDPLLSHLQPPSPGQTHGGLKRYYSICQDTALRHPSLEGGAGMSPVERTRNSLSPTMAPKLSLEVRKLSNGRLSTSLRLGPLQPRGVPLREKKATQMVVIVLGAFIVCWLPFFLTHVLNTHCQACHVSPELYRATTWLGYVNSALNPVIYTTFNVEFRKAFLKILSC
Type: cell-based

`CCCN1CCC(c2cccc(OS(=O)(=O)C(F)(F)F)c2)C1` (centres undefined) and `CCCN1CCC(c2cccc(O)c2)C1` (centres undefined) are within 1.5-fold of each other in Ki: 62 nM for the first, 52 nM for the second.

With `CCCN1CCC(c2ccccc2)C1` (centres undefined) the Ki was > 2500 nM.

These compounds were tested on Rattus norvegicus (assay: Accumulation of Dihydroxyphenylalanine in limbic region in rat after injecting drug compound 65 min and NSD 1015 at a dose of 0.07 mg/kg administered subcutaneously, 30 min before death, tested in vivo). Conditions: route subcutaneous.
Type: functional, Limbic system

Work on `O=C(CCCN1CCC(O)(c2ccc(Cl)cc2)CC1)c1ccc(F)cc1` [HALOPERIDOL] yielded a Control of 241%.

Each compound was assayed on Rattus norvegicus (assay: Accumulation of 5-Hydroxytryptophan in limbic region in rat after injecting drug compound 65 min and NSD 1015 at a dose of 100 mg/kg administered subcutaneously, 30 min before death, tested in vivo). Conditions: route subcutaneous.
Type: functional, Limbic system

First: CCCN1CCC(c2cccc(OS(=O)(=O)C(F)(F)F)c2)C1 (centres undefined)
Second: CCCN1CCC(c2cccc(O)c2)C1 (centres undefined)
The Control of the first is higher: 85% for the first, 74% for the second.

Compared with `CCCN1CCC(C2CCCCC2)C1` (centres undefined), `CCCN1CCC(c2ccccc2)C1` (centres undefined) is lower in Control: 102% for the first, 92% for the second.

Compared with `CN1CCC(C2=CN=CCC2)C1` (centres undefined), `CCCN1CCC(c2cccc3ccccc23)C1` (centres undefined) is lower in Control: 72% for the first, 53% for the second.

Each compound was assayed against T3, Serotonin 2 (5-HT2) receptor (Rattus norvegicus, UniProt P30994+P08909+P14842) (assay: Binding affinity against [3H]ketanserin binding to 5-hydroxytryptamine 2 receptor expressed in CHO-K1 cells). Conditions: not given.
Type: cell-based

For `CCCN1CCC(c2cccc3ccccc23)C1` (centres undefined), the Ki was 113 nM.

Each compound was assayed on Rattus norvegicus (assay: Accumulation of Dihydroxyphenylalanine in limbic region in rat after injecting drug compound 65 min and NSD 1015 at a dose of 100 mg/kg administered subcutaneously, 30 min before death, tested in vivo). Conditions: route subcutaneous.
Type: functional, Limbic system

First: CCCN1CCC(c2cccc(OS(=O)(=O)C(F)(F)F)c2)C1 (centres undefined)
Second: CCCN1CCC(c2cccc(O)c2)C1 (centres undefined)
The Control of the first is higher: 211% for the first, 113% for the second.

Compared with `CCCN1CCC(C2CCCCC2)C1` (centres undefined), `CCCN1CCC(c2ccccc2)C1` (centres undefined) is lower in Control: 116% for the first, 96% for the second.

Compared with `CN1CCC(C2=CN=CCC2)C1` (centres undefined), `CCCN1CCC(c2cccc3ccccc23)C1` (centres undefined) is higher in Control: 112% for the first, 118% for the second.

The compounds below were run against T4, 5-hydroxytryptamine receptor 1A (Rattus norvegicus, UniProt P19327) (assay: Inhibitory concentration against [3H]8-OH-DPAT binding to 5-hydroxytryptamine 1A receptor expressed in CHO-K1 cells). Conditions: not given.
T4 sequence (P19327 whole entry): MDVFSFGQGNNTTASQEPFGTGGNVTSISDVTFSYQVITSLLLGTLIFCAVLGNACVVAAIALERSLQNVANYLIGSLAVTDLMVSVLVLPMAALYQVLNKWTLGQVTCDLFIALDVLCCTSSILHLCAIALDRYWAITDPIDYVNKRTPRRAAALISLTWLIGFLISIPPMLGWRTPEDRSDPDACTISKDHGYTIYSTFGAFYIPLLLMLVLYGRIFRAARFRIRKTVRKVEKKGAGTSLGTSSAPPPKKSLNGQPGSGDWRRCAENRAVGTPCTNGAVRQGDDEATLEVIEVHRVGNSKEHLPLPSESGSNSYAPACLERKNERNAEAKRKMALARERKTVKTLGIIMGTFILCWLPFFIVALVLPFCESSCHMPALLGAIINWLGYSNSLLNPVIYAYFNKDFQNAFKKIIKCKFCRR
Type: cell-based

`CCCN1CCC(C2CCCCC2)C1` (centres undefined) and `CN1CCC(C2=CN=CCC2)C1` (centres undefined) cannot be ordered by IC50: > 1000 nM for the first, > 1000 nM for the second.

These compounds were tested against T1, D(2) dopamine receptor (assay: Binding affinity against [3H]U-86170 binding to Dopamine receptor D2 expressed in CHO-K1 cells). Conditions: not given.
Type: cell-based

Going from `CCCN1CCC(c2cccc(OS(=O)(=O)C(F)(F)F)c2)C1` (centres undefined) to `CCCN1CCC(c2cccc(O)c2)C1` (centres undefined), the Ki falls from 162 nM to 68 nM (2.4-fold).

Going from `CCCN1CCC(c2cccc3ccccc23)C1` (centres undefined) to `CCCN1CCC(c2ccccc2)C1` (centres undefined), the Ki rises from 71 nM to 625 nM (8.8-fold). The first binds more tightly here.

Each compound was assayed against T2, D(3) dopamine receptor (assay: Inhibitory concentration against [3H]spiperone binding to Dopamine receptor D3 expressed in CHO-K1 cells). Conditions: not given.
Type: cell-based

`CCCN1CCC(C2CCCCC2)C1` (centres undefined) and `CCCN1CCC(c2cccc3ccccc23)C1` (centres undefined) cannot be ordered by IC50: > 1000 nM for the first, > 1000 nM for the second.

For `CN1CCC(C2=CN=CCC2)C1` (centres undefined), the IC50 was > 1000 nM.

The compounds below were run against T3, Serotonin 2 (5-HT2) receptor (assay: Inhibitory concentration against [3H]ketanserin binding to 5-hydroxytryptamine 2 receptor expressed in CHO-K1 cells). Conditions: not given.
Type: cell-based

With `CCCN1CCC(c2cccc(OS(=O)(=O)C(F)(F)F)c2)C1` (centres undefined) the IC50 was > 1000 nM.
In the case of `CCCN1CCC(C2CCCCC2)C1` (centres undefined), the IC50 is reported as > 1000 nM.
For `CN1CCC(C2=CN=CCC2)C1` (centres undefined), the IC50 was > 1000 nM.
In the case of `CCCN1CCC(c2cccc(O)c2)C1` (centres undefined), the IC50 is reported as > 1000 nM.
`CCCN1CCC(c2ccccc2)C1` (centres undefined) was tested, and the IC50 was > 1000 nM.

What follows are compounds tested on Rattus norvegicus (assay: Locomotor activity, measured for 30 min after injection of drug, administered subcutaneously at 100 umol/kg). Conditions: not given.
Type: functional

Compared with `CCCN1CCC(c2cccc(OS(=O)(=O)C(F)(F)F)c2)C1` (centres undefined), `CCCN1CCC(c2cccc(O)c2)C1` (centres undefined) is lower in Control: 93% for the first, 20% for the second.

Going from `CCCN1CCC(C2CCCCC2)C1` (centres undefined) to `CCCN1CCC(c2ccccc2)C1` (centres undefined), the Control rises from 87% to 115%.

Compared with `CN1CCC(C2=CN=CCC2)C1` (centres undefined), `CCCN1CCC(c2cccc3ccccc23)C1` (centres undefined) is higher in Control: 47% for the first, 80% for the second.

With `O=C(CCCN1CCC(O)(c2ccc(Cl)cc2)CC1)c1ccc(F)cc1` [HALOPERIDOL] the Control was 2%.

These compounds were tested on Rattus norvegicus (assay: Accumulation of Dihydroxyphenylalanine in cortical brain region in rat after injecting drug compound 65 min and NSD 1015 at a dose of 100 mg/kg administered subcutaneously, 30 min before death, tested in vivo). Conditions: route subcutaneous.
Type: functional

Compared with `CCCN1CCC(c2cccc(OS(=O)(=O)C(F)(F)F)c2)C1` (centres undefined), `CCCN1CCC(c2cccc(O)c2)C1` (centres undefined) is lower in Control: 114% for the first, 88% for the second.

First: CCCN1CCC(C2CCCCC2)C1 (centres undefined)
Second: CCCN1CCC(c2ccccc2)C1 (centres undefined)
The Control of the first is lower: 119% for the first, 130% for the second.

Going from `CN1CCC(C2=CN=CCC2)C1` (centres undefined) to `CCCN1CCC(c2cccc3ccccc23)C1` (centres undefined), the Control falls from 126% to 115%.

Each compound was assayed against T4, 5-hydroxytryptamine receptor 1A (assay: Binding affinity against [3H]8-OH-DPAT binding to 5-hydroxytryptamine 1A receptor expressed in CHO-K1 cells). Conditions: not given.
Type: cell-based

Compared with `CCCN1CCC(c2cccc(OS(=O)(=O)C(F)(F)F)c2)C1` (centres undefined), `CCCN1CCC(c2cccc(O)c2)C1` (centres undefined) is 3.2-fold lower in Ki: 652 nM for the first, 201 nM for the second. The second binds more tightly here.

First: CCCN1CCC(c2cccc3ccccc23)C1 (centres undefined)
Second: CCCN1CCC(c2ccccc2)C1 (centres undefined)
The Ki of the first is 6.2-fold lower: 73 nM for the first, 453 nM for the second. The first binds more tightly here.
